Reference: patent publication US10920265B2, “Compounds and methods for detection of enzymes that remove methyl succinyl groups from epsilon-amino lysine moieties” (Enzo Life Sciences, Inc., priority 2011, dated 2021)

How the values were obtained:
HDAC6 = target: T1, HDAC6 (Homo sapiens, UniProt Q9UBN7); assay: HDAC activity with fluorogenic lysyl substrates; format: biochemical; conditions: 50 μM substrate
T1 construct: purchased ENZO Life Sciences BML-SE508
Outline: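 Deacylase activity was measured at 37 °C by the SIRT1 fluorometric kit method. SIRT1 and its Ac-Arg-His-Lys-Lys(Ac)-AMC substrate were swapped for other human recombinant enzymes and other acylated lysyl-AMC substrates such as Ac-Lys(Succ.)-AMC.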

HDAC4 = assay: HDAC activity with fluorogenic lysyl substrates; format: biochemical, human; conditions: 50 μM substrate
Protocol: The Ac-Lys(Succ.)-AMC substrate was tested for activity with recombinant preparations of human HDACs 1-11, SIRTs 1-4, 6 and 7, a complex of HDAC3 with a fragment of the activating protein NCOR1 and with HeLa nuclear extract, a rich source of active HDACs in their native multiprotein complexes.
Enzyme and extract catalog products obtained from ENZO Life Sciences included: HDAC1 (Cat. # BML-SE456), HDAC2 (Cat. # BML-SE500), HDAC3 (Cat. # BML-SE507), HDAC3/NCOR1 Complex (Cat. # BML-SE515), HDAC6 (Cat. # BML-SE508), HDAC8 (Cat. # BML-SE145), HDAC10 (Cat. # BML-SE559), HDAC11 (Cat. # BML-SE560), SIRT1 (Cat. # BML-SE239), SIRT2 (Cat. # BML-SE251), SIRT3 (Cat. # BML-SE270), SIRT5 (Cat. # BML-SE555), HeLa Nuclear Extract (Cat. # BML-KI140), Trypsin (“Fluor de Lys Developer”, 80 mg/ml bovine trypsin in 1 mM HCl, Cat. # BML-KI105 or “Fluor de Lys Developer II”, 80 mg/ml bovine trypsin in 1 mM HCl, Cat. # BML-KI176). […] Enzymes obtained from BPS Bioscience, San Diego, Calif. included: human recombinants SIRT4 (Cat. #50015), SIRT6 (Cat. #50017), SIRT7 (Cat. #50018). […]

HeLa cells = assay: Intact HeLa cell desuccinylation/deacetylation assay; format: cell-based, human; conditions: 200 μM substrate in medium, four hours
Protocol: HeLa cells were cultured to 95% confluence in the wells of ½-volume 96-well plates. […] After the indicated time, cells were lysed with detergent and trypsin added to release AMC from desuccinylated or deacetylated substrate and then fluorescence read (Ex.360 nm/Em. 460 nm). For “0 hr.” samples, substrate, inhibitors, lysis buffer and trypsin were added simultaneously. Bars represent the mean of three determinations and the error bars the Standard Deviation from that mean. Statistically significant differences between the fluorescences of “4 hr.” and “0 hr.” samples (Student's t-test) are indicated by asterisks as follows: *,p<0.02; **, p<0.002.
An assay employing Ac-Lys(Ac.)-AMC to measure the HDAC and sirtuin deacetylase activity of intact cultured cells has been described (Howitz, K. T. et al. Nature 425, 191-196 (2003); Product Manual of Enzo Life Sciences Cat. # BML-AK-503, “HDAC Fluorimetric Cellular Activity Assay Kit”, Appendix F). Ac-Lys(Ac)-AMC is added to the culture medium, enters the cells and is deacetylated by HDACs and sirtuins in their native intracellular context. Measurement of the amount of Ac-Lys-AMC produced by intracellular deacetylation is then accomplished by detergent lysis of the cells and release of the AMC fluorophore by trypsin. We therefore investigated whether Ac-Lys(Succ.)-AMC could be used to measure intracellular desuccinylation activity, in a similar fashion, with cultured HeLa cells. […] These latter, deacetylation results are consistent with previous observations made with this assay system (see Howitz, K. T. et al. Nature 425, 191-196 (2003) and Appendix F).
Assays (FIG. 10) were performed according to the manufacturer's instructions for the ““HDAC Fluorometric Cellular Activity Assay Kit” (ELS Cat. # BML-AK503), with exceptions described as follows. Where indicated the “Fluor de Lys Substrate” (Ac-Lys(Ac.)-AMC; ELS Cat. # BML-KI104) was replaced with Ac-Lys(Succ.)-AMC (1).

HeLa cell extracts = assay: HeLa cell extract Ac-Lys(ε-succinyl)-AMC desuccinylation activity; format: biochemical, human; conditions: 50 μM substrate, 500 μM NAD^+, no inhibitor, 2 hr., 37° C.
Protocol: Enzyme and extract catalog products obtained from ENZO Life Sciences included: HDAC1 (Cat. # BML-SE456), HDAC2 (Cat. # BML-SE500), HDAC3 (Cat. # BML-SE507), HDAC3/NCOR1 Complex (Cat. # BML-SE515), HDAC6 (Cat. # BML-SE508), HDAC8 (Cat. # BML-SE145), HDAC10 (Cat. # BML-SE559), HDAC11 (Cat. # BML-SE560), SIRT1 (Cat. # BML-SE239), SIRT2 (Cat. # BML-SE251), SIRT3 (Cat. # BML-SE270), SIRT5 (Cat. # BML-SE555), HeLa Nuclear Extract (Cat. # BML-KI140), Trypsin (“Fluor de Lys Developer”, 80 mg/ml bovine trypsin in 1 mM HCl, Cat. # BML-KI105 or “Fluor de Lys Developer II”, 80 mg/ml bovine trypsin in 1 mM HCl, Cat. # BML-KI176). […] Enzymes obtained from BPS Bioscience, San Diego, Calif. included: human recombinants SIRT4 (Cat. #50015), SIRT6 (Cat. #50017), SIRT7 (Cat. #50018). HeLa whole cell extract was obtained from HeLa S3 cells (American Type Culture Collection) grown in a medium of MEM/10% fetal bovine serum (FBS) as follows: 1) 9×10^6 cells were suspended by trypsinization, followed by a phosphate buffered saline (PBS) rinse and addition of MEM/10% FBS (1.5 mL) to eliminate trypsin before transfer to a 15 mL conical tube; 2) cells were sedimented by a low speed centrifugation, gently resuspended in PBS and sedimented again and supernatant removed; 3) lysis was induced by resuspension in 0.8 mL 50 mM Tris/HCl, pH 8.0 with the non-denaturing detergent NP-40 (0.5%), placement on ice and brief vortexing every 5 min. for 30 min.; 4) 100 μl of a concentrated salt solution in the same buffer was added in order to bring the final buffer composition to 50 mM Tris/C1, pH 8.0, 137 mM NaCl, 2.7 mM KCl, 1 mM MgCl2, 0.5% NP-40; 5) particulate matter was cleared by centrifugation and the cleared lysate supernatant transferred to a 1.5 mL Eppendorf tube and stored on ice until use in activity assays.
Assays were performed at 37° C., according to the manufacturer's instructions for the “SIRT1 Fluorometric Drug Discovery Kit” from Enzo Life Sciences (ELS) (Cat. # BML-AK555), with exceptions described as follows. […]

T1 sequence (Q9UBN7 whole entry): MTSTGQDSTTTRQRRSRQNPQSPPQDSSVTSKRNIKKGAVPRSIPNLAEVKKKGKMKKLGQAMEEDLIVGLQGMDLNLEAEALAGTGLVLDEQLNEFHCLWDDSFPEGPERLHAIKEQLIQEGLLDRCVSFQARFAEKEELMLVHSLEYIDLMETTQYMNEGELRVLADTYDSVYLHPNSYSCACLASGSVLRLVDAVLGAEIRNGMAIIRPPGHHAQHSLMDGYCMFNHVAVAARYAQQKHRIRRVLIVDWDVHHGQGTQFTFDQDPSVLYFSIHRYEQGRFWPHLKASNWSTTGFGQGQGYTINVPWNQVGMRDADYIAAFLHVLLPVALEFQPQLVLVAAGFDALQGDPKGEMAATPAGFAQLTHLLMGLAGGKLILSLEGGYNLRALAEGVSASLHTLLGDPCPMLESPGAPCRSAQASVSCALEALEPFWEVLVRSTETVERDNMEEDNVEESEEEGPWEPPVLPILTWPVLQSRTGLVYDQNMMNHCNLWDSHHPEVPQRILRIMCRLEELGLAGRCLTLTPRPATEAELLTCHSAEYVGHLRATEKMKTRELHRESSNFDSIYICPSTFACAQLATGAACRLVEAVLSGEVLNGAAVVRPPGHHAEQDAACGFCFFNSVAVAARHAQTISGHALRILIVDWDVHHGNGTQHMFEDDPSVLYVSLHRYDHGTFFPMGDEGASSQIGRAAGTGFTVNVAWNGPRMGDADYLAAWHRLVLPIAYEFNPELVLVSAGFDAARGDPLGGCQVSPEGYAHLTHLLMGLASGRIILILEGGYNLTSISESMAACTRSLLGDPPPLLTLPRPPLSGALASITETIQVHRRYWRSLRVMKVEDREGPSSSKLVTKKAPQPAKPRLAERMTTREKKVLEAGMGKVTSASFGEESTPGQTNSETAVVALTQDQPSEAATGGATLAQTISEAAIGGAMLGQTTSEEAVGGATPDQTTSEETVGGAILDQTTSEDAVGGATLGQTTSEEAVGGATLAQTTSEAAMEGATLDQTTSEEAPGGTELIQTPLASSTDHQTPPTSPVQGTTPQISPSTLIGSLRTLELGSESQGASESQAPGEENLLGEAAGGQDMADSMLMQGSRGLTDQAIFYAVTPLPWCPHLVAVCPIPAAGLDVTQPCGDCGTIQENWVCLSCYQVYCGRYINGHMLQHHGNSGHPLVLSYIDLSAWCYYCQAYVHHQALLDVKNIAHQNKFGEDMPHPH

SMILES	Activity (HDAC6) [pmol/min/µg]	Activity (pmol/min/μg) (HDAC4)	Intracellular desuccinylation/deacetylation of substrate (HeLa cells)	Activity (pmol/min/μg) (HDAC6)	Maximum fluorescence increase over 0 hr./NL (HeLa cell extracts)
CC(=O)NCCCCC(NC(C)=O)C(=O)Nc1ccc2c(C)cc(=O)oc2c1 (stereo not shown) [Ac-Lys(Ac.)-AMC, Ac-Lys(ε-acetyl)-AMC, reference compound]	1.0	Undetectable	significant deacetylation		
CC(=O)N[C@@H](CCCCNC(=O)CCC(=O)O)C(=O)Nc1ccc2c(C)cc(=O)oc2c1 [Compound 1, N—(N^α-acetyl-L-Lysine(N^ε-succinyl))-AMC]		Undetectable	no significant desuccinylation	Undetectable	22,000
